Results as given in publication PMC5663395, “Chemical Validation of Methionyl-tRNA Synthetase as a Druggable Target in Leishmania donovani” (ACS Infectious Diseases, 2017).
Like-named read-outs stand apart in the source and are kept apart here.

Columns and labels:
LdMetRS = LdMetRS (Leishmania donovani, UniProt A0A3Q8IBX2); experiment: LdMetRS biochemical enzyme assay (BIOMOL Green); conditions: read-out: LdMetRS IC50
Experimental: LdMetRS Assay Development and Kinetic Parameter Determinations
Activity of the LdMetRS enzyme was determined by monitoring levels of pyrophosphate released during the first step of the enzymatic reaction. The pyrophosphate formed was converted to two inorganic phosphate molecules using a pyrophosphatase enzyme and levels of the resulting phosphate molecules measured using the BIOMOL® Green reagent (Enzo Life Sciences) 2.
Following optimization of the assay buffer and determination of the enzyme linearity, 384-well plate based assays were carried out at room temperature in a 50 μl reaction volume containing 30 mM Tris, pH 8.0, 140 mM NaCl, 30 mM KCl, 40 mM MgCl2, 0.01% (v/v) Brij-35, 1 mM DTT, 1 U/ml pyrophosphatase, 50 nM recombinant LdMetRS, and varying concentrations of substrates. Michaelis constants for the ATP and methionine substrates were determined in an end point assay using the above buffer and enzyme conditions. Data were fitted to the modified Michaelis-Menten equations […]
Equation 1 (Hill equation): […]
Equation 2 (High substrate inhibition Michaelis-Menten equation): […]
LdMetRS Inhibitor Studies
All test compounds were solubilized in 100% DMSO to a concentration of 10 mM. To generate IC50 data for the compounds, assay ready plates containing 10-point inhibitor curves (half-log serial dilutions) were prepared using an Echo® 550 (Labcyte).
Following preparation of the inhibitor curves, assays were carried out at room temperature in clear, flat bottom, polystyrene, 384-well plates (Greiner). Each assay was performed in a 50 μl reaction volume containing 30 mM Tris; pH 8.0, 140 mM NaCl, 30 mM KCl, 40 mM MgCl2, 0.01% (v/v) Brij-35, 1 mM DTT, 1 U/ml pyrophosphatase, 50 nM recombinant LdMetRS, 50 µM methionine and 100 µM […]
Assays were performed by adding 25 μl buffer with enzyme to assay plates (with buffer only added to ‘no enzyme’ control wells) before the reaction was initiated with the addition of a 25 μl mix containing methionine, ATP and pyrophosphatase to all wells. Following a 120 min reaction at room temperature the assay was stopped with the addition of 50 μl BIOMOL® Green. The BIOMOL® Green signal was allowed to develop for 30 min before the absorbance of each well was read at 650 nm using an EnVision multilabel plate reader (PerkinElmer Life Sciences). All liquid dispensing steps were carried out using a Thermo Scientific WellMate dispenser (Matrix).
ActivityBase from IDBS (version 8.0.5.4) was used for data processing and analysis. All IC50 curve fitting was undertaken using ActivityBase XE (version 7.7.1) from IDBS. A four-parameter logistic dose-response curve was utilized with prefit used for all four parameters.
For DDD806905 Kiapp determinations, data fitting to the Morrison equation (equation 3) was carried out using GraFit v6.0 (Erithacus Software). It should be noted that data for fitting to the Morrison equation was normalised to a ‘100 µM DDD806905’ control rather than a ‘no enzyme’ control as […]
Equation 3 (Morrison equation): […]
vi = K1 −−([ ] [ ]ET+IT+Ki)−([ ] [ ]ET+IT+i)[ ] [ ]TIE4T
LdMetRS Mode of Inhibition Studies
To establish the mode of inhibition of DDD806905, data sets (generated using the BIOMOL® Green assay platform previously described) were collected by varying both the inhibitor and substrate concentrations. Using GraFit v6.0 (Erithacus Software) each data set was individually fitted to the Michaelis-Menten equation or the modified high substrate inhibition Michaelis-Menten equation described above (equation 2), and the resulting Lineweaver-Burk plots were examined for diagnostic […]
Data sets were then globally fitted to the appropriate model (with equations 4 and 5 used for […]
If more than one model appeared possible, then data were fitted to both and examined for significance using the F-test function in GraFit.

[1] = system: L. donovani promastigotes; experiment: Leishmania promastigote viability assay; assay type: cell-based, Leishmania donovani; conditions: Supplementary Table 1; read-out: Leishmania Promastigote EC50
Experimental: After suitable sample preparation, the
In vivo Leishmaniasis Animal Model […]
administered twice daily over the same interval.
Parasite load is expressed in Leishman-
Knock-out and overexpressor generation
Leishmania Promastigote Assay
Serum shift experiments were […]
(§1) carried out as described above using 5%, 10% and 20% FBS in the media. To examine the effect of the methionine concentration on the potency of DDD806905 parasites were grown in the presence of drug and in the presence (or absence) of 20-fold excess methionine (0.3 g/l). IC50 curve fitting was undertaken in GraFit version 6.0 (Erithacus Software) using a four-parameter logistic dose-response curve (equation 6), with s the slope.
(§2) Leishmania Axenic Amastigote Assay
(§3) The Leishmania axenic amastigote assay was performed using the method published in Nühs et al 15.
(§4) Leishmania Intracellular Amastigote Assay
(§5) The intramacrophage Leishmania assay was performed using a modified version of the method described in De Rycker et al 16. […]
(§6) amphotericin B was included. Controls were as follows: columns 11 and 12: DMSO, columns 23 and 24: amphotericin B (final concentration 2 µM). 350 nl of compound was pre-dispensed into 384-well sterile intermediary plates. To the intermediary plates, 35 µl of THP-1 media was added and plates were shaken for >5 min to ensure complete mixing. THP-1 cells (8,000 per well, 50 µl) were plated into black clear-bottom 384-well plates (Corning) in presence of 20 nM phorbol 12-myristate 13-

[2] = system: L. donovani axenic amastigotes; experiment: Leishmania axenic amastigote viability assay; assay type: cell-based, Leishmania donovani; conditions: read-out: Leishmania Axenic Amastigote EC50
Experimental: as §1, §2, §3, §4, §5
as §6, with “13- […]” for “13-”
in a humidified incubator for 75 h. The cells were then washed with 450 µl sterile phosphate buffered saline (PBS) supplemented with 1 mM CaCl2, 0.5 mM MgCl2, 0.1% (w/v) bovine serum albumin (PBS-A) and amastigotes were added to all wells at a multiplicity of infection of 5 (40,000 amastigotes per well). After 40 min at room temperature, plates were returned to the incubator.
Amastigotes were incubated in the presence of THP-1 macrophages for 16 h. Any remaining extracellular amastigotes were subsequently removed by washing with PBS-A followed by addition of 25 µl of the compound pre-dilutions using an Ipette-pro pipetting station (FluidX). The final dilution of each compound was 200-fold. Plates were incubated for 96 h and then washed (250 µl PBS-A) and fixed (4 % (v/v) formaldehyde-PBS, 30 min, room temperature). After fixation, the wells were washed with 250 µl PBS, stained (10 µg/ml DAPI, 0.4 µg/mL HCS Cellmask Deep Red in PBS + 0.1% (v/v) Triton X-100, 30 min, room temperature) and washed with 250 µl PBS. Finally, PBS + 0.05% (v/v) thimerosal was added to the wells, the plates were sealed and imaged on a high-content microscope (GE IN Cell 2000) using a 10x objective. Image analysis was carried out with GE IN Cell Analyzer 1000 Workstation using the “Multi Target Analysis” module. For each well, i) THP-1 cell count (cytotoxicity readout) and ii) average number of amastigotes per cell (potency readout) were […]

THP-1 lysosomes = experiment: Lysosomotropism assay (LysoTracker Red competition); assay type: cell-based, human; conditions: PMA-differentiated THP-1 cells, 30 min
Experimental: calculated, both in terms of pEC50 values. MIC (minimum inhibitory concentration) values are defined as the lowest concentration tested at which maximal inhibition is reached.
THP-1 cells were differentiated in 96-well plates with PMA as described above. Following differentiation the cells were treated for 30 min with dose-response curves of test compounds in presence of 100 nM LysoTracker Red DND-99 (Thermo Fisher) and 5 µg/ml Hoechst 33342. Next cells were washed 3 times with Hanks Buffered Saline Solution (Gibco) and imaged on a Perkin Elmer Operetta system. An image analysis algorithm to measure mean Lysotracker Red DND-99 intensity per cell was developed in Columbus. Mean Intensity was normalised using a no dye control (100% effect) and DMSO treated wells stained with Lysotracker Red DND-99 (0% effect control). Dose-response curves were fitted for the test compounds using a four-parameter equation (equation 5 above) and constrained to 0 and 100% where necessary.
To measure the pKa of DDD806905, a fast UV-metric method was performed using a Sirius T3 instrument (Sirius Analytical, U.K.). The calculation of the pKa was determined using the Sirius T3 refine software (Sirius Analytical, U.K.). In brief, the UV-metric pKa method is based on measuring pH during an acid-base titration and monitoring UV absorbance shift. The ionisation curve (Bjerrum curve) was then used to determine the pH where exactly 50 % of neutral and 50 % of ionised species was present. DDD806905 must be fully dissolved throughout the titration and so the titration is set to start at the pH where DDD806905 is in its fully ionised state. The appearance of precipitate was monitored throughout the experiment by a turbidity sensing device. […] The pKas of DDD806905 was determined at the pH where there was maximal change in UV absorbance with respect to pH. […]
LogD7.4 values were quantified using a Sirius T3 instrument (Sirius Analytical, U.K.). […] The instrument software calculated the pH of each data point using mass and charge balance equations and then fitted this theoretical data to the experimental data. […]

Sequence of LdMetRS (A0A3Q8IBX2 entry or part of it): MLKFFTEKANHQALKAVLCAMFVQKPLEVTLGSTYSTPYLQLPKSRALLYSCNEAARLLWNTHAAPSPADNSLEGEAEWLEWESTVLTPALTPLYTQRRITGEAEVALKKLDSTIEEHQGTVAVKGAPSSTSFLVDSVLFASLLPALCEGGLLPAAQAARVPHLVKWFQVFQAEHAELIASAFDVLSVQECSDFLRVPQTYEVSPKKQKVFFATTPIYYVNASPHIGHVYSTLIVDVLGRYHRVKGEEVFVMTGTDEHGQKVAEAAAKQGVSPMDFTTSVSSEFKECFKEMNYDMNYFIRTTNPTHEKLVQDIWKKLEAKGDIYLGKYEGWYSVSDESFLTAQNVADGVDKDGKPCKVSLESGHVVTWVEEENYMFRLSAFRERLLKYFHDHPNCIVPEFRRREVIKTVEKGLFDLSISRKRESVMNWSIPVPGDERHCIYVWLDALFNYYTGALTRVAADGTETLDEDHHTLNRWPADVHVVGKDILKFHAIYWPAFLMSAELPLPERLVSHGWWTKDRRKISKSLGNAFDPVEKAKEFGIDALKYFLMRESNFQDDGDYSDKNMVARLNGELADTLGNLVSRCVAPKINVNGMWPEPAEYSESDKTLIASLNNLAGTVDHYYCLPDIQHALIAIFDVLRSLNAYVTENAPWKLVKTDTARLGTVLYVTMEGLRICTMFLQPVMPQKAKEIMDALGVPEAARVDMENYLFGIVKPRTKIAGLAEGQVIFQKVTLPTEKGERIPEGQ

Structure (SMILES) | IC50 (LdMetRS; Supplementary Table 1) [µM] | EC50 [1] [µM] | EC50 ([2]; Supplementary Table 1) [µM] | IC50 (LdMetRS; Table 1) [µM] | EC50 ([2]; Leishmania donovani, Table 1) [µM] | competition with lysotracker red accumulation in THP-1 lysosomes (THP-1 lysosomes)
Clc1ccc(Cl)c2[nH]c(CNCCCNc3nc4ccccc4[nH]3)cc12 [Compound 3] | 69 | 7.1 | > 50 | – | – | –
Cc1c(CNCCCNc2nc3ccccc3[nH]2)[nH]c2cc(Cl)cc(Cl)c12 [Compound 4] | 2.8 | 1.3 | 38 | – | – | –
FC(F)(F)c1cc(C(F)(F)F)c2cc(CNCCCNc3nc4ccccc4[nH]3)[nH]c2c1 [Compound 5] | 46 | 6.2 | 29 | – | – | –
COc1cccc2[nH]c(NCCCNCc3cc(Br)cc(Br)c3)nc12 [Compound 7] | 79 | 19 | > 50 | – | – | –
OCc1c(Cl)cc(Cl)cc1CNCCCNc1nc2ccccc2[nH]1 [Compound 8] | 47 | 33 | > 50 | – | – | –
COc1cc(C(F)(F)F)cc2[nH]c(CNCCCNc3nc4ccccc4[nH]3)cc12 [Compound 9] | > 100 | 7.8 | > 50 | – | – | –
COc1cc(C(F)(F)F)c2cc(CNCCCNc3nc4ccccc4[nH]3)[nH]c2c1 [Compound 10] | 4.8 | 6.5 | > 50 | – | – | –
Brc1cc(Br)c2c(c1)C(NCCCNc1nc3ncccc3[nH]1)CCN2 (stereo not shown) [Compound 11] | 0.17 | 0.54 | 6.2 | – | – | –
Cc1cc(C)c2cc(CNCCCNc3nc4ccccc4[nH]3)[nH]c2c1 [Compound 12] | 5.6 | 9.5 | > 50 | – | – | –
CCOc1c(CNCCCNc2nc3ccccc3[nH]2)cc(Br)cc1OC [Compound 13] | 37 | 19 | > 50 | – | – | –
CCOc1c(Br)cc(C)cc1CNCCCNc1nc2ccccc2[nH]1 [Compound 14] | 12 | 7.6 | > 50 | – | – | –
CCOc1c(Cl)cc(Cl)cc1CNCCCNc1nc2ccccc2[nH]1 [Compound 15] | 5.4 | 4.1 | > 50 | – | – | –
CCOc1c(Br)cc(Cl)cc1CNCCCNc1nc2ccccc2[nH]1 [Compound 16] | 5.9 | 4.9 | > 50 | – | – | –
OCCn1c(CNCCCNc2nc3ccccc3[nH]2)cc2c(Cl)cc(Cl)cc21 [Compound 17] | 0.38 | 0.87 | 19 | – | – | –
O=C(NCCCNc1nc(=O)c2ccccc2[nH]1)c1cc2c(Cl)cc(Cl)cc2[nH]1 [Compound 25] | – | – | – | 3.3 | > 50 | –
O=c1nc(NCCCNCc2cc(Cl)cc(Cl)c2)[nH]c2ccccc12 [Compound 26] | – | – | – | 0.74 | 38 | –
O=C(CCNc1nc(=O)c2ccccc2[nH]1)NCc1cc(Cl)cc(Cl)c1 [Compound 27] | – | – | – | 2.8 | 22 | –
O=c1nc(NCCCCCc2cc(Cl)cc(Cl)c2)[nH]c2ccccc12 [Compound 29] | – | – | – | > 100 | > 50 | –
CN(CCCNc1nc(=O)c2ccccc2[nH]1)Cc1cc2c(Cl)cc(Cl)cc2[nH]1 [Compound 30] | – | – | – | 0.03 | 18 | –
O=c1nc(OCCCNCc2cc3c(Cl)cc(Cl)cc3[nH]2)[nH]c2ccccc12 [Compound 31] | – | – | – | 22 | > 50 | –
CCN(CC)CCCC(C)Nc1ccnc2cc(Cl)ccc12 (stereo not shown) [chloroquine, reference compound] | – | – | – | – | – | did compete with lysotracker red accumulation
